The values that follow are results of earlier work, collected in patent US20120289594A1, “ORAL DOSAGE FORM” (Orion Corporation, priority 2005, published 2012).

The conditions of data set [1]: background statement.
The conditions of data set [2]: background statement. This is another data set of the same source.

Take `CCN(CC)C(=O)/C(C#N)=C/c1cc(O)c(O)c([N+](=O)[O-])c1` [Entacapone, (E)-2-cyano-3-(3,4-dihydroxy-5-nitrophenyl)-N-diethyl-2 propenamide]: the “absorption in the gastrointestinal tract” value in data set [1] is on record as “quickly absorbed”. Besides, the water solubility entry in data set [2] is given as “very low”.
